{"source": "paper PMC8528301", "about": "(PLoS ONE, 2021)", "key": {"[1]": {"details": "oral dosing; monkeys; cited from earlier work"}, "[2]": {"assay": "Dasatinib disposition in bile duct cannulated rats (literature)", "format": "in vivo, rat"}, "[3]": {"details": "bile duct cannulated rats; no reference given; cited from earlier work"}}, "data": [{"smiles": "Cc1nc(Nc2ncc(C(=O)Nc3c(C)cccc3Cl)s2)cc(N2CCN(CCO)CC2)n1", "note": "[dasatinib]", "values": [{"measurement": "Tmax", "setting": "[1]", "result": 36, "unit": "min"}, {"measurement": "percentage absorbed", "setting": "[2]; bile duct cannulated rats, inferred from unchanged drug", "result": 67, "unit": "%"}, {"measurement": "share of absorbed drug that might undergo hepatic metabolism", "setting": "[2]; rats", "result": 60, "unit": "%"}, {"measurement": "share of total drug that might undergo hepatic metabolism", "setting": "[2]; rats", "result": "at least 40%"}, {"measurement": "oral bioavailability", "setting": "[3]", "result": 27, "unit": "%"}, {"measurement": "percentage of unchanged drug in the gastrointestinal tract", "setting": "[3]", "result": 33, "unit": "%"}]}]}
